Data: patent publication US9278974B2, “Substituted pyrazolo[3,4-d]pyrimidine compounds, their preparation and use as sigma receptors ligands” (LABORATORIOS DEL DR. ESTEVE S.A., priority 2012, dated 2016)
Structures can show the parent of a compound that is named as a salt.

target: T1, sigma-1 receptor (Cavia porcellus, UniProt Q60492); test: Sigma-1 receptor binding assay, [3H]-(+)-pentazocine, guinea pig brain membranes; conditions: radioligand [3H]-(+)-pentazocine 5.0 nM, 150 min at 37° C., nonspecific binding with 1 μM haloperidol
T1 construct: Guinea pig brains were homogenized in 10 vols; (w/v) of Tris-HCl 50 mM 0.32 M sucrose, pH 7.4; from tissue; host or cells: guinea pig brain membranes
Experimental: Brain membrane preparation and binding assays for the […] were performed as described (DeHaven-Hudkins, D. L., L. C. Fleissner, and F. Y. Ford-Rice, 1992, Characterization of the binding of [^3H](+)pentazocine to α recognition sites in guinea pig brain, Eur. J. Pharmacol. 227, 371-378) with some modifications. Guinea pig brains were homogenized in 10 vols. (w/v) of Tris-HCl 50 mM 0.32 M sucrose, pH 7.4, with a Kinematica Polytron PT 3000 at 15000 r.p.m. for 30 s. The homogenate was centrifuged at 1000 g for 10 min at 4° C. and the supernatants collected and centrifuged again at 48000 g for 15 min at 4° C. The pellet was resuspended in 10 volumes of Tris-HCl buffer (50 mM, pH 7.4), incubated at 37° C. for 30 min, and centrifuged at 48000 g for 20 min at 4° C. Following this, the pellet was re-suspended in fresh Tris-HCl buffer (50 mM, pH 7.4) and stored on ice until use.
The radioligand used was [^3H]-(+)-pentazocine at 5.0 nM and the final volume was 200 μl. The incubation was initiated with the addition of 100 μl of membrane at a final tissue concentration of approximately 5 mg tissue net weight/mL and the incubation time was 150 m. at 37° C. After incubation, the membranes were collected onto pretreated glass fiber filterplate (MultiScreen-FC, Millipore), with polyethylenimine 0.1%. The filters were washed two times with 200 μl of washing buffer (50 mM Tris Cl, pH=7.4) and then 25 μl of Ecoscint H liquid scintillation cocktail were added. Microplates were allowed to set for several hours and then quantified by liquid scintillation spectrophotometry (1450 Microbeta, Wallac). Nonspecific binding was determined with 1 μM haloperidol.

T1 sequence (Q60492 whole entry): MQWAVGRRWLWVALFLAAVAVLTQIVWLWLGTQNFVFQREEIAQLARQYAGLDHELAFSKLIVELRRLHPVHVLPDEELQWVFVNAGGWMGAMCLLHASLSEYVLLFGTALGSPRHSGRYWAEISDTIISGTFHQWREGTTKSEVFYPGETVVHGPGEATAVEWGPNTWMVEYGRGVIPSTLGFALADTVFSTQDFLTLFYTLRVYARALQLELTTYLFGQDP

First: Fc1ccc(-c2ncnc3c2cnn3CCN2CCCCC2)c(F)c1 [Example 39, 4-(2,4-difluorophenyl)-1-(2-(piperidin-1-yl)ethyl)-1H-pyrazolo[3,4-d]pyrimidine]
Second: Cc1cc(F)ccc1-c1ncnc2c1cnn2CCN1CCCCC1 [Example 29, 4-(4-fluoro-2-methylphenyl)-1-(2-(piperidin-1-yl)ethyl)-1H-pyrazolo[3,4-d]pyrimidine]
The Ki of the first is 1.7-fold higher: 0.0816 µM for the first, 0.0484 µM for the second.

Going from Fc1ccc(-c2ncnc3c2cnn3CCN2CCCCC2)c(C(F)(F)F)c1 [Example 34, 4-(4-fluoro-2-(trifluoromethyl)phenyl)-1-(2-(piperidin-1-yl)ethyl)-1H-pyrazolo[3,4-d]pyrimidine] to FC(F)(F)c1ccccc1-c1ncnc2c1cnn2CCN1CCCCC1 [Example 38, 1-(2-(piperidin-1-yl)ethyl)-4-(2-(trifluoromethyl)phenyl)-1H-pyrazolo[3,4-d]pyrimidine], the Ki rises from 0.057 µM to 0.125 µM (2.2-fold). The first binds more tightly here.

Compared with CCOc1ccccc1-c1ncnc2c1cnn2CCN1CCCCC1 [Example 13, 4-(2-ethoxyphenyl)-1-(2-(piperidin-1-yl)ethyl)-1H-pyrazolo[3,4-d]pyrimidine hydrochloride], Cc1ccccc1-c1ncnc2c1cnn2CCN1CCCCC1 [Example 2, 1-(2-(piperidin-1-yl)ethyl)-4-o-tolyl-1H-pyrazolo[3,4-d]pyrimidine] is 4.1-fold lower in Ki: 0.3 µM for the first, 0.0738 µM for the second. The second binds more tightly here.

First: Cn1nc(C(F)(F)F)cc1-c1ncnc2c1cnn2CCN1CCCCC1 [Example 16, 4-(1-methyl-3-(trifluoromethyl)-1H-pyrazol-5-yl)-1-(2-(piperidin-1-yl)ethyl)-1H-pyrazolo[3,4-d]pyrimidine]
Second: Cn1cccc1-c1ncnc2c1cnn2CCN1CCCCC1 [Example 27, 4-(1-methyl-1H-pyrrol-2-yl)-1-(2-(piperidin-1-yl)ethyl)-1H-pyrazolo[3,4-d]pyrimidine]
The Ki of the first is 4.3-fold higher: 0.137 µM for the first, 0.0315 µM for the second. The second binds more tightly here.

First: Fc1ccc(-c2ncnc3c2cnn3CCN2CCCCC2)c(Cl)c1 [Example 42, 4-(2-chloro-4-fluorophenyl)-1-(2-(piperidin-1-yl)ethyl)-1H-pyrazolo[3,4-d]pyrimidine]
Second: Fc1cc(Cl)ccc1-c1ncnc2c1cnn2CCN1CCCCC1 [Example 46, 4-(4-chloro-2-fluorophenyl)-1-(2-(piperidin-1-yl)ethyl)-1H-pyrazolo[3,4-d]pyrimidine]
The Ki of the first is 4.1-fold lower: 0.027 µM for the first, 0.112 µM for the second.

First: Clc1ccc(-c2ncnc3c2cnn3CCN2CCCCC2)s1 [Example 20, 4-(5-chlorothiophen-2-yl)-1-(2-(piperidin-1-yl)ethyl)-1H-pyrazolo[3,4-d]pyrimidine]
Second: Clc1ccccc1-c1ncnc2c1cnn2CCN1CCCCC1 [Example 35, 4-(2-chlorophenyl)-1-(2-(piperidin-1-yl)ethyl)-1H-pyrazolo[3,4-d]pyrimidine]
The Ki of the first is 2.2-fold lower: 0.035 µM for the first, 0.0757 µM for the second. The first binds more tightly here.

First: COc1ncccc1-c1ncnc2c1cnn2CCN1CCCCC1 [Example 11, 4-(2-methoxypyridin-3-yl)-1-(2-(piperidin-1-yl)ethyl)-1H-pyrazolo[3,4-d]pyrimidine (L)-tartrate]
Second: COc1cc(F)ccc1-c1ncnc2c1cnn2CCN1CCCCC1 [Example 28, 4-(4-fluoro-2-methoxyphenyl)-1-(2-(piperidin-1-yl)ethyl)-1H-pyrazolo[3,4-d]pyrimidine]
The Ki of the first is 3.9-fold higher: 0.151 µM for the first, 0.0392 µM for the second. The second binds more tightly here.

First: Cc1cncc(-c2ncnc3c2cnn3CCN2CCCCC2)c1 [Example 18, 4-(5-methylpyridin-3-yl)-1-(2-(piperidin-1-yl)ethyl)-1H-pyrazolo[3,4-d]pyrimidine]
Second: Cc1cccc(-c2ncnc3c2cnn3CCN2CCCCC2)c1 [Example 3, 1-(2-(piperidin-1-yl)ethyl)-4-m-tolyl-1H-pyrazolo[3,4-d]pyrimidine hydrochloride]
The Ki of the first is 5.4-fold higher: 0.447 µM for the first, 0.0825 µM for the second. The second binds more tightly here.

First: Cc1ccc(C)c(-c2ncnc3c2cnn3CCN2CCCCC2)c1 [Example 26, 4-(2,5-dimethylphenyl)-1-(2-(piperidin-1-yl)ethyl)-1H-pyrazolo[3,4-d]pyrimidine]
Second: Cc1ccc(Cl)c(-c2ncnc3c2cnn3CCN2CCCCC2)c1 [Example 25, 4-(2-chloro-5-methylphenyl)-1-(2-(piperidin-1-yl)ethyl)-1H-pyrazolo[3,4-d]pyrimidine]
The Ki of the first is 1.8-fold higher: 0.0554 µM for the first, 0.0312 µM for the second. The second binds more tightly here.

COc1ncccc1-c1ncnc2c1cnn2CCN1CCCCC1 [Example 10, 4-(2-methoxypyridin-3-yl)-1-(2-(piperidin-1-yl)ethyl)-1H-pyrazolo[3,4-d]pyrimidine] and c1ccc(-c2ncnc3c2cnn3CCN2CCCCC2)cc1 [Example 1, 4-phenyl-1-(2-(piperidin-1-yl)ethyl)-1H-pyrazolo[3,4-d]pyrimidine] are within 1.5-fold of each other in Ki: 0.112 µM for the first, 0.0996 µM for the second.

Going from Fc1ccc(-c2ncnc3c2cnn3CCN2CCC(F)(F)CC2)c(Cl)c1 [Example 44, 4-(2-chloro-4-fluorophenyl)-1-(2-(4,4-difluoropiperidin-1-yl)ethyl)-1H-pyrazolo[3,4-d]pyrimidine] to Fc1ccc(-c2ncnc3c2cnn3CCN2CCCCC2)cc1 [Example 14, 4-(4-fluorophenyl)-1-(2-(piperidin-1-yl)ethyl)-1H-pyrazolo[3,4-d]pyrimidine], the Ki falls from 0.318 µM to 0.0954 µM (3.3-fold).

CN(CCn1ncc2c(-c3ccc(F)cc3Cl)ncnc21)Cc1ccc(F)cc1 [Example 49, 2-(4-(2-chloro-4-fluorophenyl)-1H-pyrazolo[3,4-d]pyrimidin-1-yl)-N-(4-fluorobenzyl)-N-methylethanamine] and CN(CCn1ncc2c(-c3ccccc3Cl)ncnc21)Cc1ccc(F)cc1 [Example 47, 2-(4-(2-chlorophenyl)-1H-pyrazolo[3,4-d]pyrimidin-1-yl)-N-(4-fluorobenzyl)-N-methylethanamine] are within 1.5-fold of each other in Ki: 0.0617 µM for the first, 0.0766 µM for the second.

Compared with c1nc(-c2cnsc2)c2cnn(CCN3CCCCC3)c2n1 [Example 36, 4-(1-(2-(piperidin-1-yl)ethyl)-1H-pyrazolo[3,4-d]pyrimidin-4-yl)isothiazole], Clc1ccc(-c2ncnc3c2cnn3CCN2CCCCC2)cc1 [Example 21, 4-(4-chlorophenyl)-1-(2-(piperidin-1-yl)ethyl)-1H-pyrazolo[3,4-d]pyrimidine] is 11-fold lower in Ki: 0.475 µM for the first, 0.0426 µM for the second.

First: Cc1noc(C)c1-c1ncnc2c1cnn2CCN1CCCCC1 [Example 6, 3,5-dimethyl-4-(1-(2-(piperidin-1-yl)ethyl)-1H-pyrazolo[3,4-d]pyrimidin-4-yl)isoxazole hydrochloride]
Second: CN(CCn1ncc2c(-c3ccnn3C)ncnc21)Cc1ccc(F)cc1 [Example 48, N-(4-fluorobenzyl)-N-methyl-2-(4-(1-methyl-1H-pyrazol-5-yl)-1H-pyrazolo[3,4-d]pyrimidin-1-yl)ethanamine]
The Ki of the first is 2.1-fold higher: 0.0724 µM for the first, 0.0341 µM for the second. The second binds more tightly here.
